Assay [1] concerns the target mTOR (human) (Homo sapiens (Human), UniProt P42345). As to the kind of experiment: mTOR (human) kinase assay, [γ-33P-ATP] filter assay. The class given is biochemical. The note with it: for ratio IC50 (ATM) : IC50 (mTOR), selectivity with respect to mTOR: as printed:
As to the method: Furthermore, the effect, in particular inhibition, of other kinases and thus the selectivity of the compounds according to the invention can be determined with the aid of the following assay:
mTOR (human) was incubated with 50 mM HEPES pH 7.5, 1 mM EGTA, 0.01% Tween 20, 2 mg/ml of the substrate, 3 mM MnCl2 and [γ-^33P-ATP] (specific activity approximately 500 cpm/pmol, concentration as necessary). The reaction was initiated by addition of MgATP solution. After incubation at room temperature for 40 minutes, the reaction was stopped by addition of 3% phosphoric acid. 10 μl of the reaction solution were then transferred dropwise onto a P30 filtermat and washed three times for 5 min in 75 mM phosphoric acid and once in methanol, dried and evaluated by means of liquid scintillation counting.

Assay [2] has as its target purified human recombinant ATM (ataxia telangiectasia mutated), full length (Homo sapiens (Human), UniProt Q13315). As to the kind of experiment: ATM kinase assay - determination of ATM inhibition (IC50 ATM), TR-FRET. The class given is biochemical. The gist of the method: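 Full-length enzyme, expressed in a mammalian cell line, pre-incubated 15 min with inhibitor in 25 mM HEPES pH 8.0, 10 mM Mg(CH3COO)2, 1 mM MnCl2, 0,1% BSA, 0,01% Brij 35, 5 mM DTT. Full-length cmyc-p53 (Sf21-expressed) and ATP then added, 30-35 min at 22° C. EDTA stop; p53 S15 phosphorylation read by TR-FRET antibodies.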
(In TR-FRET formats the signal depends on donor and acceptor labels being close together.)

The target of assay [3] is PI3K p110α/p85α (human) (Homo sapiens (Human), UniProt P42336). As to the kind of experiment: PI3K p110α/p85α (human), non-radioactive assay (HTRF). It is filed as biochemical. The note with it: for IC50: read-out: IC50 (PI3Kalpha); for ratio IC50 (ATM) vs PI3Kalpha, selectivity with respect to PI3Kalpha: as printed:
For assay [4], the system named is phosphorylation of CHK2 (phospho-Thr68) in HCT116 cells. The assay is described as follows: Cellular pCHK2 assay: bleomycin-induced phosphorylation of CHK2 (phospho-Thr68), immunofluorescence high-content analysis. The note with it: Homo sapiens, HCT-116, 4 h, read-out: IC50 (pCHK2). The class given is cell-based, human. The procedure, abridged: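 HCT116 cells in DMEM with 10% FCS, incubated overnight at 37° C, then given compounds (1 nM to 30 μM, 0.5% DMSO) together with 10 μM bleomycin. Phospho-Thr68 CHK2 immunostained and imaged by high-content imager; nuclei with pCHK2 above background counted, cell count from propidium iodide DNA stain.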

For assay [5], the target named is PI3K (p120γ) (human) (Homo sapiens (Human), UniProt P48736). As to the kind of experiment: PI3K (p120γ) (human), non-radioactive assay (HTRF). The class given is biochemical. The note with it: for IC50: read-out: IC50 (PI3Kgamma); for ratio IC50 (ATM) vs PI3Kgamma, selectivity with respect to PI3Kgamma: as printed:
The procedure, abridged:
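Enzyme was run with 10 μM phosphatidylinositol 4,5-bisphosphate, starting the reaction with MgATP at an unspecified level, for 30 min at room temperature. The stop used EDTA plus biotinylated PIP3, and detection used Eu-anti-GST, GST-GRP1 PH domain and streptavidin-APC. Signal was taken as HTRF = 10000×(Em665nm/Em620nm).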

The target in assay [6] is PI3K p110δ/p85α (human) (Homo sapiens (Human), UniProt O00329). As to the kind of experiment: PI3K p110δ/p85α (human), non-radioactive assay (HTRF). It is filed as biochemical. The note with it: for IC50: read-out: IC50 (PI3Kdelta); for ratio IC50 (ATM) vs PI3Kdelta, selectivity with respect to PI3Kdelta: as printed:
The target in assay [7] is PI3K p110β/p85α (human) (Homo sapiens (Human), UniProt P42338). As to the kind of experiment: PI3K p110β/p85α (human), non-radioactive assay (HTRF). The note with it: for fold selectivity for ATM over PI3Kbeta (IC50 PI3Kbeta / IC50 ATM): IC50 (ATM) at least 2000 times higher compared with IC50 (PI3Kbeta). The class given is biochemical. As to the method: PI3K p110β/p85α (Human), Non-radioactive Assay
Sequence of PI3K p110β/p85α (human) (P42338 whole entry): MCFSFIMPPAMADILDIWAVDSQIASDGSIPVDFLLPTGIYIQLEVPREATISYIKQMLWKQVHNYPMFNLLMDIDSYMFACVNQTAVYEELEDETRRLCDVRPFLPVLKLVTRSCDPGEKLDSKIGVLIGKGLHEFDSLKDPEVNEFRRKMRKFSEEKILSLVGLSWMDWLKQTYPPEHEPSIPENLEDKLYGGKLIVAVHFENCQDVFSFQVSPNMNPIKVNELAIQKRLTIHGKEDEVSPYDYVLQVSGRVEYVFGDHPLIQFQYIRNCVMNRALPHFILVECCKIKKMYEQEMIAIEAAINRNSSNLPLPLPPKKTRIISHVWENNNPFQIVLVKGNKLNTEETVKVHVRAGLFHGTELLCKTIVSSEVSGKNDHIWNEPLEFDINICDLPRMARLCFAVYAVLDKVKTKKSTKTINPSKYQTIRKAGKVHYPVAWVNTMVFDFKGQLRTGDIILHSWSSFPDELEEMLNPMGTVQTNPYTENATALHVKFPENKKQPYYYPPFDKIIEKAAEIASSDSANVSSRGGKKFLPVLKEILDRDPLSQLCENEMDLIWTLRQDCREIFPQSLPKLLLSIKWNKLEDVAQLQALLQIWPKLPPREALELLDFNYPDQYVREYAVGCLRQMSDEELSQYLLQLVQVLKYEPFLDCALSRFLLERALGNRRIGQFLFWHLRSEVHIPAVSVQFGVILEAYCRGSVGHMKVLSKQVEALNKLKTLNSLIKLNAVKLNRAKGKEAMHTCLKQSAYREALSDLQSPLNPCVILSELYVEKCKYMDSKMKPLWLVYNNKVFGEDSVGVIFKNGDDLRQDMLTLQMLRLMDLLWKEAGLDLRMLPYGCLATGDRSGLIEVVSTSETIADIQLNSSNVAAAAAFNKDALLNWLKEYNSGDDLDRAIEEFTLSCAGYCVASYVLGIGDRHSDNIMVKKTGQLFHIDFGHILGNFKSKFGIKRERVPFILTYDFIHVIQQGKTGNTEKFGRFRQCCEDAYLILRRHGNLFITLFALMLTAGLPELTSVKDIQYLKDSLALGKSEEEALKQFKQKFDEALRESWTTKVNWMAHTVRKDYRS
Sequence of PI3K p110β/p85α (human) (P27986 whole entry partner): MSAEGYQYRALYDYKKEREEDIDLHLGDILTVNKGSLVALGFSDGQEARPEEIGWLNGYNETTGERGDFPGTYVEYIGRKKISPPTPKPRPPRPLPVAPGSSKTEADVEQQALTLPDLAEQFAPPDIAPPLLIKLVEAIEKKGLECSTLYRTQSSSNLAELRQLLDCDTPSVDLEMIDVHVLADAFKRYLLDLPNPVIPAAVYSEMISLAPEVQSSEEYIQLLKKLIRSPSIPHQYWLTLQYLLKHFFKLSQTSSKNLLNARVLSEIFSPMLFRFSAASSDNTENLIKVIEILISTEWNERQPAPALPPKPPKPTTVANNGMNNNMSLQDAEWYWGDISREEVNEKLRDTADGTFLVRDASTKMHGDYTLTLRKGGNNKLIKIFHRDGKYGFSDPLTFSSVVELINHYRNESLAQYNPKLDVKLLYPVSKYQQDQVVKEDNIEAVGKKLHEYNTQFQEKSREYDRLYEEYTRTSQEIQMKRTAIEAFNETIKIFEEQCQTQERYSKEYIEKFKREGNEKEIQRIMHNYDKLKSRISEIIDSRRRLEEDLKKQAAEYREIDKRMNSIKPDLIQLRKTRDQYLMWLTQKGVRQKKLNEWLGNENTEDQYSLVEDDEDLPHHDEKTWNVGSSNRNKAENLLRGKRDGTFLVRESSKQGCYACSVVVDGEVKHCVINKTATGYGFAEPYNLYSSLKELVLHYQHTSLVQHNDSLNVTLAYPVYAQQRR
PI3K p110β/p85α (human) was incubated in an assay buffer comprising 10 μM phosphati-dylinositol 4,5-bisphosphate and MgATP (concentration as necessary). The reaction was initiated by addition of MgATP solution. After an incubation time of 30 min at room temperature, the reaction was stopped by addition of a solution consisting of EDTA and biotinylated phosphatidylinositol 3,4,5-trisphosphate. Finally, the detection buffer, consisting of a europium-labelled anti-GST monoclonal antibody, a GST-labelled GRP1 PH domain and streptavidin allophycocyanin, was added. The plate was read out via homogeneous time-resolved fluorescence (HTRF) and the corresponding signals were evaluated via the formula HTRF=10000×(Em665nm/Em620nm).

Where two headings read alike, the source gives them in different places. Where only a bound is given, the exact number is not on record here.

Sequence of purified human recombinant ATM (ataxia telangiectasia mutated), full length (Q13315 whole entry, change not shown): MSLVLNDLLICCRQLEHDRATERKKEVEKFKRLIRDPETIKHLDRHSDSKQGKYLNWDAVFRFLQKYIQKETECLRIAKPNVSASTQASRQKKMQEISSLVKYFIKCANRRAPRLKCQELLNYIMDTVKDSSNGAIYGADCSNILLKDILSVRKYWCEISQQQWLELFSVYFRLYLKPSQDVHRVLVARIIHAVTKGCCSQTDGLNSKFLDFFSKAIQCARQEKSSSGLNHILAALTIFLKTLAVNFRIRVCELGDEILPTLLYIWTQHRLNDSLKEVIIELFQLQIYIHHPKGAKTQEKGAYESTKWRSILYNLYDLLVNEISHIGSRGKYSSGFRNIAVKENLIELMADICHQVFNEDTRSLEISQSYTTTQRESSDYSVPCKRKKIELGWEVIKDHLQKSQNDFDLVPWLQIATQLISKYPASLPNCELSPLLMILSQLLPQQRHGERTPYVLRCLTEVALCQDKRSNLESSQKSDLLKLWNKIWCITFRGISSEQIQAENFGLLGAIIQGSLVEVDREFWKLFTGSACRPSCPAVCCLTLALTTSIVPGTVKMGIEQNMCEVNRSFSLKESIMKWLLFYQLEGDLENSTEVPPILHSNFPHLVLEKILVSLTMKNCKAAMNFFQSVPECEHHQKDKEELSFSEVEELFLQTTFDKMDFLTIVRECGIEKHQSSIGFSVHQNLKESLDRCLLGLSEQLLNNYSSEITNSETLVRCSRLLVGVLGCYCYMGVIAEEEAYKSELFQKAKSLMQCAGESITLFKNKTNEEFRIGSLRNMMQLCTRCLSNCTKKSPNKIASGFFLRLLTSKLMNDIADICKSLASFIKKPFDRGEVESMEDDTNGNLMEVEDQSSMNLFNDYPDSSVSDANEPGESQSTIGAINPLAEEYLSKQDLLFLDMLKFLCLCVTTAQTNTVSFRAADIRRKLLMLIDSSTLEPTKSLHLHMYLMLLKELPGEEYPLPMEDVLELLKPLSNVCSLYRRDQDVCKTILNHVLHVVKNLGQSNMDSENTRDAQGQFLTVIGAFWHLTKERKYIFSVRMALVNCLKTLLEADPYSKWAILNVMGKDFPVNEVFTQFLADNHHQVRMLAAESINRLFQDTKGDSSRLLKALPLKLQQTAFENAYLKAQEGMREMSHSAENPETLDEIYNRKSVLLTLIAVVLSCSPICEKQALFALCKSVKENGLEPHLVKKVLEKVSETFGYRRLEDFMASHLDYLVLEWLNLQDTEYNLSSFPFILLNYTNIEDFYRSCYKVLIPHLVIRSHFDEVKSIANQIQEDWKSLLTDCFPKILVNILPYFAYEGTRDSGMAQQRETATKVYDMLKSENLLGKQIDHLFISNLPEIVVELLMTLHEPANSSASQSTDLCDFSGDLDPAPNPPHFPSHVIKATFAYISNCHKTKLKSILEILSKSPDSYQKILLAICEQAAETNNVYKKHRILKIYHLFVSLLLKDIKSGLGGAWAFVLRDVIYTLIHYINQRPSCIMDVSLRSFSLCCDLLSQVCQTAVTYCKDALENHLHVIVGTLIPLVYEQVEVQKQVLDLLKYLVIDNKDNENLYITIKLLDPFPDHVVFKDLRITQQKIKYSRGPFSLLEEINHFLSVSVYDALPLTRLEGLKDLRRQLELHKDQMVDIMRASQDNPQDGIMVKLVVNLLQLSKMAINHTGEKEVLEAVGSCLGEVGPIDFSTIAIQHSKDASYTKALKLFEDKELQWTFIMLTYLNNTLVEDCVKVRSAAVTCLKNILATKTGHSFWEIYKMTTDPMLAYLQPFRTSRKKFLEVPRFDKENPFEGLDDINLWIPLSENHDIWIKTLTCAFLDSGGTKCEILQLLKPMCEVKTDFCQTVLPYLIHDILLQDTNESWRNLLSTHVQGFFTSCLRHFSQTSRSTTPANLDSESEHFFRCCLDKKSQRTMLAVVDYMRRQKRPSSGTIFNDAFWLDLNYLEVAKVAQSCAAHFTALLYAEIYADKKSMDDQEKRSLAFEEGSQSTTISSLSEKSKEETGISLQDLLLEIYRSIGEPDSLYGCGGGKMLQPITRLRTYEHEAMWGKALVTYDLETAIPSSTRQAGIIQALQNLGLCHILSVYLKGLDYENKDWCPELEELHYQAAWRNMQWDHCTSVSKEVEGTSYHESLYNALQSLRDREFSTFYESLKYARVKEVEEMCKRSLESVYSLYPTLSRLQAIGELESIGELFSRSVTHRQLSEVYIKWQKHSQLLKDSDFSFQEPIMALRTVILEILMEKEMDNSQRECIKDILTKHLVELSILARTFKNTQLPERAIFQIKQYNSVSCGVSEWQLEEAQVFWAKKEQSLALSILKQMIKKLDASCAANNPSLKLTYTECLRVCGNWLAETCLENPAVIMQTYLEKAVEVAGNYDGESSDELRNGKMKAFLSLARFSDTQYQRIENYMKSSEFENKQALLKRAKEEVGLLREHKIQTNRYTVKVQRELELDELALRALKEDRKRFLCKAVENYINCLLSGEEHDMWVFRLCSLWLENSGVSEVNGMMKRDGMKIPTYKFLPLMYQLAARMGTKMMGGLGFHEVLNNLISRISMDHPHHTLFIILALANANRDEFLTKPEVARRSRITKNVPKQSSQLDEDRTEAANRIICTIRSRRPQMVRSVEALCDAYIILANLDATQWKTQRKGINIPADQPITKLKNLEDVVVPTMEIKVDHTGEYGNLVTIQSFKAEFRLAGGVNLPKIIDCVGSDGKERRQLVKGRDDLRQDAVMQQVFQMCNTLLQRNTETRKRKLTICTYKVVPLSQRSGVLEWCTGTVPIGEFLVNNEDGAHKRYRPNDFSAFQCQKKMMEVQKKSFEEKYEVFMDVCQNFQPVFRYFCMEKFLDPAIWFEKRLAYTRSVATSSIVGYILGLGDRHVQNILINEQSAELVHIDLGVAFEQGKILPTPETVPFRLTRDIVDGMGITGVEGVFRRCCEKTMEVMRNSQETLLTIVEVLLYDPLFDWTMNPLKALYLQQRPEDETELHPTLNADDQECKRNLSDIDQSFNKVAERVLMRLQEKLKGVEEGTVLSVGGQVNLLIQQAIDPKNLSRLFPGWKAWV

As for `COc1cc2ncc3c(c2cc1-c1cnn(C)c1)n(-c1cn[nH]c1)c(=O)n3C` [Compound Example 53, 7-Methoxy-3-methyl-8-(1-methyl-1H-pyrazol-4-yl)-1-(1H-pyrazol-4-yl)-1,3-dihydroimidazo[4,5-c]-quinolin-2-one], the IC50 in assay [1] was more than 30 µM; in assay [2] it was less than 0.01 µM; in assay [2] (10 μM ATP, substrate p53) it was less than 0.01 µM; in assay [3] it was more than 30 µM; in assay [4], 0.2 to 1 µM; in assay [5], more than 30 µM. Further, the IC50 in assay [6] and in assay [7] (read-out: IC50 (PI3Kbeta)) was more than 30 µM throughout.
For `COc1cc2ncc3c(c2cc1-c1cnn(C)c1)n(-c1c(C)n[nH]c1C)c(=O)n3C` [compound 118, 1-(3,5-Dimethyl-1H-pyrazol-4-yl)-7-methoxy-3-methyl-8-(1-methyl-1H-pyrazol-4-yl)-1,3-dihydroimidazo[4,5-c]-quinolin-2-one], in assay [1], the “ratio IC50 (ATM) : IC50 (mTOR), selectivity with respect to mTOR” value was “at least 2000 times”. The IC50 is less than 0.01 µM in assay [2] (10 μM ATP, substrate p53) and 0.2 to 1 µM in assay [4]. For the same molecule, the “fold selectivity for ATM over PI3Kbeta (IC50 PI3Kbeta / IC50 ATM)” value (“fold selectivity … (IC50 PI3Kbeta / IC50 ATM)” below) in assay [7] was “at least 2000 times”.
In the case of `CCc1cncc(F)c1-n1c(=O)n(C)c2cnc3cc(OC)c(-c4cnn(C)c4)cc3c21` [Compound Example 12, 1-(3-Ethyl-5-fluoropyridin-4-yl)-7-methoxy-3-methyl-8-(1-methyl-1H-pyrazol-4-yl)-1,3-dihydroimidazo[4,5-c]-quinolin-2-one], the IC50 is more than 30 µM in assay [1]; less than 0.001 µM in assay [2]; less than 0.001 µM in assay [2] (10 μM ATP, substrate p53); more than 30 µM in assay [3]; less than 0.2 µM in assay [4]; more than 30 µM in assay [5]. Moreover, the IC50 in assay [6] and in assay [7] (read-out: IC50 (PI3Kbeta)) was more than 30 µM each time.
`COc1cc2ncc3c(c2cc1-c1cn[nH]c1)n(-c1ncc(C)cc1F)c(=O)n3C` [Compound Example 20, 1-(3-Fluoro-5-methylpyridin-2-yl)-7-methoxy-3-methyl-8-(1H-pyrazol-4-yl)-1,3-dihydroimidazo[4,5-c] quinolin-2-one]: the IC50 was more than 30 µM in assay [1]; less than 0.001 µM in assay [2]; less than 0.001 µM in assay [2] (10 μM ATP, substrate p53); more than 30 µM in assay [3]; less than 0.2 µM in assay [4]; more than 30 µM in assay [5]. For the same molecule, the IC50 in assay [6] and in assay [7] (read-out: IC50 (PI3Kbeta)) was more than 30 µM each time.
As for `CCn1cc(-c2cc3c(cc2OC)ncc2c3n(-c3c(C)cncc3F)c(=O)n2C)cn1` [Compound Example 38, 8-(1-Ethyl-1H-pyrazol-4-yl)-1-(3-fluoro-5-methylpyridin-4-yl)-7-methoxy-3-methyl-1,3-dihydroimidazo[4,5-c] quinolin-2-one], the IC50 in assay [1] was more than 30 µM; in assay [2] it was less than 0.001 µM; in assay [2] (10 μM ATP, substrate p53), less than 0.001 µM; in assay [3] it was more than 30 µM; in assay [4], 0.2 to 1 µM; in assay [5], more than 30 µM. The IC50 in assay [6] and in assay [7] (read-out: IC50 (PI3Kbeta)) was more than 30 µM in each case.
As for `COc1cc2ncc3c(c2cc1-c1cnn(C)c1)n(-c1ccnn1C)c(=O)n3C` [Compound Example 49, 7-Methoxy-3-methyl-1-(2-methyl-2H-pyrazol-3-yl)-8-(1-methyl-1H-pyrazol-4-yl)-1,3-dihydroimidazo[4,5-c]-quinolin-2-one], the IC50 in assay [1] was more than 30 µM; in assay [2] it was less than 0.01 µM; in assay [2] (10 μM ATP, substrate p53) it was less than 0.01 µM; in assay [3] it was more than 30 µM; in assay [4], 0.2 to 1 µM; in assay [5] it was more than 30 µM. In addition, the IC50 in assay [6] and in assay [7] (read-out: IC50 (PI3Kbeta)) was more than 30 µM in each case.
Take `CCc1cncc(F)c1-n1c(=O)n(C)c2cnc3cc(OC)c(-c4cn[nH]n4)cc3c21` [compound 125, 1-(3-Ethyl-5-fluoropyridin-4-yl)-7-methoxy-3-methyl-8-(2H-1,2,3-triazol-4-yl)-1,3-dihydroimidazo[4,5-c] quinolin-2-one]: the IC50 in assay [2] (10 μM ATP, substrate p53) was less than 0.001 µM; in assay [4], 0.2 to 1 µM. Besides, the “ratio IC50 (ATM) vs PI3Kalpha, selectivity with respect to PI3Kalpha” value in assay [3] is “at least 2000 times”. The “ratio IC50 (ATM) vs PI3Kgamma, selectivity with respect to PI3Kgamma” value in assay [5] was “at least 2000 times”. Further, the “ratio IC50 (ATM) vs PI3Kdelta, selectivity with respect to PI3Kdelta” value in assay [6] is “at least 2000 times”. Moreover, the “fold selectivity … (IC50 PI3Kbeta / IC50 ATM)” value in assay [7] is “at least 2000 times”.
Take `CCc1cncc(F)c1-n1c(=O)n(C)c2cnc3cc(OC)c(-c4cnn(CC)c4)cc3c21` [Compound Example 25, 1-(3-Ethyl-5-fluoropyridin-4-yl)-8-(1-ethyl-1H-pyrazol-4-yl)-7-methoxy-3-methyl-1,3-dihydroimidazo[4,5-c] quinolin-2-one]: the IC50 is more than 30 µM in assay [1]; less than 0.001 µM in assay [2]; less than 0.001 µM in assay [2] (10 μM ATP, substrate p53); more than 30 µM in assay [3]; less than 0.2 µM in assay [4]; more than 30 µM in assay [5]. The IC50 in assay [6] and in assay [7] (read-out: IC50 (PI3Kbeta)) was more than 30 µM in each case.
`COc1cc2ncc3c(c2cc1-c1cn[nH]c1)n(-c1ncc(F)cc1F)c(=O)n3C` [Example 6]: the IC50 in assay [1] is more than 30 µM; in assay [2], less than 0.001 µM; in assay [2] (10 μM ATP, substrate p53), less than 0.001 µM; in assay [3] it was more than 30 µM; in assay [4], less than 0.2 µM; in assay [5], more than 30 µM. In addition, the IC50 in assay [6] and in assay [7] was more than 30 µM each time.
With `[2H]C([2H])([2H])Oc1cncc(F)c1-n1c(=O)n(C)c2cnc3cc(OC)c(-c4cnn(C)c4)cc3c21` [compound 145, 1-[3-Fluoro-5-(trideuterio-methoxy)-4-pyridyl]-7-methoxy-3-methyl-8-(1-methylpyrazol-4-yl)imidazo-[4,5-c]quinolin-2-one], the “ratio IC50 (ATM) : IC50 (mTOR), selectivity with respect to mTOR” value in assay [1] is on record as “at least 2000 times”. Further, the IC50 in assay [2] (10 μM ATP, substrate p53) was less than 0.001 µM; in assay [4] it was 0.2 to 1 µM. In addition, the “ratio IC50 (ATM) vs PI3Kgamma, selectivity with respect to PI3Kgamma” value in assay [5] is recorded as “at least 2000 times”. Further, the “ratio IC50 (ATM) vs PI3Kdelta, selectivity with respect to PI3Kdelta” value in assay [6] was “at least 2000 times”. For the same molecule, in assay [7], the “fold selectivity … (IC50 PI3Kbeta / IC50 ATM)” value is given as “at least 2000 times”.
As to `COc1cc2ncc3c(c2cc1-c1cn(C)nc1C)n(-c1c(F)cncc1OC)c(=O)n3C` [Compound Example 4, 8-(1,3-Dimethyl-1H-pyrazol-4-yl)-1-(3-fluoro-5-methoxy-pyridin-4-yl)-7-methoxy-3-methyl-1,3-dihydroimidazo-[4,5-c]quinolin-2-one], the IC50 in assay [1] is more than 30 µM; in assay [3], more than 5 µM; in assay [4] it was less than 0.2 µM; in assay [5] it was more than 30 µM; in assay [6], more than 10 µM; in assay [7] (read-out: IC50 (PI3Kbeta)), more than 30 µM.
As to `COc1cc2ncc3[nH]c(=O)n(-c4ncc(F)cc4F)c3c2cc1-c1cn(C)nc1C` [compound 108, 1-(3,5-Difluoropyridin-2-yl)-8-(1,3-dimethyl-1H-pyrazol-4-yl)-7-methoxy-1,3-dihydroimidazo[4,5-c]-quinolin-2-one], the IC50 was less than 0.001 µM in assay [2] (10 μM ATP, substrate p53) and 0.2 to 1 µM in assay [4]. Further, the “ratio IC50 (ATM) vs PI3Kalpha, selectivity with respect to PI3Kalpha” value in assay [3] was “at least 2000 times”. Moreover, the “ratio IC50 (ATM) vs PI3Kgamma, selectivity with respect to PI3Kgamma” value in assay [5] was “at least 2000 times”. Further, the “ratio IC50 (ATM) vs PI3Kdelta, selectivity with respect to PI3Kdelta” value in assay [6] was “at least 2000 times”. In addition, the “fold selectivity … (IC50 PI3Kbeta / IC50 ATM)” value in assay [7] is “at least 2000 times”.

Source of the values: US10457677B2 (priority 2015, dated 2019).
